Test results taken from patent US7396682B2, “Method for cell adhesion and wound healing” (Regen Biotech, Inc., priority 2000, dated 2008).

How the values were obtained:
HCE cells = experiment: Inhibition assay of HCE cell adhesion using matrix peptides and reagents; assay type: cell-based, human; conditions: HCE cells preincubated 30 min with reagent
Method: In order to identify cell surface receptors involved in the cell adhesion activity of βig-h3 protein, an inhibition assay was performed using various reagents.
Initially, plastic culture dishes were coated with 10 μg/ml fibronectin, βigh3-WT or βigh3-ΔRGD. HCE cells were preincubated for 30 min in media containing 5 mM EDTA, 100 μg/ml βigh3-WT, 100 μg/ml βigh3-ΔRGD, 1 mM RGD, 1 mM RGE or 100 μg/ml fibronectin, or none of them, and then assayed for cell adhesion as in Example 1.

K562 cells = experiment: K562 cell adhesion to coated proteins (hexosaminidase analysis); assay type: cell-based; conditions: 1 hour
Method: For another control experiment, K562 cells, known to express α5, but not α3 integrin, were used. K562 cells were inoculated onto plates coated with βigh3-WT, fibronectin, laminin, or type I collagen and incubated for 1 hour, followed by the hexosaminidase analysis.

[1] = system: dermal whole layer wounds on the backs of rats; experiment: Wound healing with ointment bases on dermal whole layer wounds (2 cm) of rats; assay type: in vivo, rat; parameters: key to Formation grade of collagenous fibers at wound: 0: negative; 1+: insignificant; 2+: scatteringly formed; 3+: very dense; key to Re-ephithelialization of Wound (grade): 0: zero was set for the formation of no epithelial layers; 1+ for initiation of epithelialization; 2+ for incomplete epithelial layer structure; 3+ for complete epithelial layer structure; conditions: for wound area: ointment 100 μg/ml, 1 g per day, mean
Method: To compare wound healing activity between the recombinant βig-h3 protein His-β-b, which contains all of the four fas-1 domains, like native βig-h3 protein, and the recombinant βig-h3 protein βigh3-D-IV, which contains the 4th domain alone, ointment bases comprising the recombinant proteins were tested as follows.
Four dermal whole layer wounds, each 2 cm in diameter, were made on the backs of rats and divided into test groups 1-A, 1-B, 1-C and 1-D according to the ointment applied thereto.
1-A: coated at a dose of 1 gm per day with an ointment base combined with no materials.
1-B: coated at a dose of 1 gm per day with an ointment in which fibronectin was combined at a concentration of 100 μg/ml with a base.
1-C: coated at a dose of 1 g per day with an ointment in which Hisβ-b protein was combined at a concentration of 100 μg/ml with a base.
1-D: coated at a dose of 1 g per day with an ointment in which βigh3-D-IV protein was combined at a concentration of 100 μg/ml with a base.
The backs of etherized rats were shaved, followed by sterilizing the shaved region with betadin solution. In test group 1, the back of each rat was cut by use of a No. 15 surgical blade to form four circular wounds with a diameter of 2 cm penetrating the whole dermal layers. Ointments for test groups 1-A, 1-B, 1-C and 1-D were applied at an amount of about 1 g to the wounds which were then covered with a synthetic dressing (Tegaderm® 3M) and lightly bandaged. Application of ointments was performed once every day.
With a base of an aqueous material (SamA base), each of the ointments contained, per 1 g, spermaceti 38 mg, stearyl alcohol 116 mg, polyethylglycol 38 mg, conc. glycerin 192 mg, ethanol 23 mg, […], ethyl paraoxybenzoate 0.87 mg, butyl paraoxybenzoate 0.12 mg, and purified water.
First, morphologies of wounds were observed. The same scale was positioned near each wound and pictures were taken at the same distance from each wound. Pictures were scanned in a computer and used to measure areas of the wounds with the aid of NIH image analysis system (Bio-Optics). To take the pictures, the muscle was completely relaxed by etherizing the rats. Measurements were performed once every other day until the 22nd day. For comparing test groups, the measured values were analyzed according to ANOVA test and Scheffer's test.
Histological analysis was conducted under an optical microscope. Biopsies of wound sites were taken at days 3, 7, 10, 14 and 20, and fixed in 10% formalin and solidified with paraffin. 6 μm slices of the samples were dyed with hematoxylin-eosin (H&E) and Masson's trichrome before observation under a microscope. Wound healing effects according to time of each test material were evaluated through re-epithelialization and formation of collagenous fibers. In the case of re-epithelialization, epithelial formation was semi-quantified in such a way that zero was set for the formation of no epithelial layers, 1+ for initiation of epithelialization, 2+ for incomplete epithelial layer structure, and 3+ for complete epithelial layer structure. Regarding comparison among test groups and differences according to time within each group, measured values were statistically analyzed using ANOVA test and Scheffe's test. As for collagenous fiber formation, it was graded as 1+ for insignificant formation of collagenous fibers as observed with trichrome dye, 2+ for scatteringly spaced collagenous fibers, and 3+ for dense collagenous fibers.

[2] = system: circular dermal whole layer wounds on the back of each rat; experiment: Wound healing with chitosan base composites on dermal whole layer wounds (7 mm) of rats; assay type: in vivo; conditions: chitosan base with 500 μg/ml protein, Mean ± S.D
Method: Adult Spraque-Dawley lineage rats with a body weight of 250-300 gm were raised with standard feedstuff at a constant temperature and humidity.
In test group 2, four circular dermal whole layer wounds were made on the back of each rat and coated with chitosan bases combined with materials of interest:
2-A: wound coated with chitosan base only
2-B: wound coated with chitosan base in combination with 500 μg/ml of fibronectin
2-E: wound coated with chitosan base in combination with 500 μg/ml of βig-h3 D-IV 3X protein
2-F: wound coated with chitosan base in combination with 500 μg/ml of βig-h3 D-IV 4X protein
The composites based on chitosan were prepared as follows. 1 g of water soluble chitosan (poly(1-4) 2-amino-2-deoxy-β-D-glucan) with a molecular weight of 600,000 Da was dissolved in 100 ml of sterile distilled water and the resulting 1% solution was dispensed in aliquot of 2 ml to 12-well plate (Corning, USA), followed by the addition of 100 μg of gentamycin per well. Fibronectin, βigh3-D-IV 3X, and βigh3-D-IV 4X were individually added to a concentration of 500 μg/ml and frozen at −70° C., followed by freeze-drying in a freeze drier (Ilshin) for 12 hours to give disc-shaped composites.
The backs of etherized rats were shaved, followed by sterilizing the shaved region with betadin solution. Penetrating the whole dermal layers, four circular wounds with a diameter of 7 mm were formed on the back of each rat. The wounds were covered with composites used for test groups 2-A, 2-B, 2-E and 2-F, respectively, and then with Tegaderm® (3M) and lightly bandaged. The composites were changed with fresh ones every three days.
Wound healing effects were evaluated by determining appearances of the wounds as in Example 4-2.

Substance: Fibronectin: positive control; purified human plasma fibronectin in cell assays, purified from citrated rat plasma for wound tests
- inhibition of cell adhesion to fibronectin (HCE cells; dishes coated with 10 μg/ml fibronectin): significantly inhibited
- inhibition of cell adhesion to βig-h3 (HCE cells; dishes coated with 10 μg/ml βig-h3): partially inhibited
- adhesion of K562 cells to coated protein (K562 cells): adhered
- wound area ([1]; Day 0): 3.17
- wound area ([1]; Day 2): 2.38 cm²
- Formation grade of collagenous fibers at wound ([1]; Day 3): 1+
- Re-ephithelialization of Wound (grade) ([1]; Day 3): 0
- wound area ([1]; Day 4): 2.01
- wound area ([1]; Day 6): 1.83
- Formation grade of collagenous fibers at wound ([1]; Day 7): 2+
- Re-ephithelialization of Wound (grade) ([1]; Day 7): 1+
- wound area ([1]; Day 8): 1.39 cm²
- Formation grade of collagenous fibers at wound ([1]; Day 10): 2+
- Re-ephithelialization of Wound (grade) ([1]; Day 10): 1+
- wound area ([1]; Day 10): 1.26 cm²
- wound area ([1]; Day 12): 0.54
- Formation grade of collagenous fibers at wound ([1]; Day 14): 3+
- Re-ephithelialization of Wound (grade) ([1]; Day 14): 2+
- wound area ([1]; Day 14): 0.39
- wound area ([1]; Day 16): 0.25
- wound area ([1]; Day 18): 0.16
- Formation grade of collagenous fibers at wound ([1]; Day 20): 3+
- Re-ephithelialization of Wound (grade) ([1]; Day 20): 3+
- wound area ([1]; Day 20): 0.12
- wound area ([1]; Day 22): 0.06
- reduction in wound area compared with ointment base alone ([1]; ointment application, p<0.05 versus group I-A): more quickly reduced
- completion of re-epithelialization ([1]; optical microscope): 20 days
- Remaining wound area ([2]; Day 0): 49.2 ± 0.5 mm^2
- Remaining wound area ([2]; Day 3): 24.1 ± 0.6^b mm^2
- Remaining wound area ([2]; Day 6): 12.9 ± 0.6^b mm^2
- Remaining wound area ([2]; Day 9): 9.7 ± 0.8^b mm^2
- Remaining wound area ([2]; Day 12): 3.2 ± 0.4^b mm^2
- Remaining wound area ([2]; Day 15): 0.8 ± 0.2^b mm^2
